“And” between values parts separate entries of the source, which are not always exact repeats. Equal values may be shown once.
Columns and labels:
[1] = Body weight of rats over the 10-day period (Example 3); assay type: in vivo, rat; design: Body weight Difference: unit not given here; settings: Sennosides 3.35 mg/kg/day; for Body weight Difference, Mean / Body weight End Day 10, Mean: group mean; for Body weight Difference, Mean / Body weight Difference: Day 10 minus Day 1; for Body weight Difference / Body weight End Day 10: individual rats
Protocol: The aforementioned STD05 and compounds were studied for the laxative activity. Healthy male S.D. rats (BioLASCO Taiwan Co. Ltd.) were divided into three groups (i.e., Groups 1-3) in this study. In Group I, 6 rats, as negative control, were given no treatment; 6 rats, as positive control, were given 3.35 mg/kg/day Sennosides (Through®, Chung Mei Pharmaceutical Co., Ltd; Active ingredient: Sennosides 20 mg, as sennoside A+B 12 mg, Lot. 012F 006); 6 rats were treated STD05 (8 mg/kg/day); 6 rats were treated with an extract fraction containing aloe-emodin, rhein, and emodin (“ARE”, 8 mg/kg/day); 6 rats were treated with Aloe-emodin (4 mg/kg/day); and 6 rats were treated with Rhein (4 mg/kg/day). In Group II, 6 rats, as negative control, were given no treatment; 6 rats, as positive control, were given 3.35 mg/kg/day Sennosides; 6 rats were treated STD05 (24 mg/kg/day); 6 rats were treated with an extract fraction containing ARE (24 mg/kg/day); 6 rats were treated with Chrysophanol (4 mg/kg/day); and 6 rats were treated with Emodin (4 mg/kg/day). In Group III, 6 rats, as negative control, were given no treatment; 6 rats were treated with Physcoin (4 mg/kg/day); and 6 rats were treated with a mixture of chrysophanol and physcion (8 mg/kg/day, “CP”). The experiments were carried out under controlled temperature, humidity, and lighting. Each rat was fed standard rat food and water ad libitum in housing that provided a 12-hour light/dark cycle. For statistical comparison, all of the rats were divided into six sets according to the body weights. The first part of the experiment studied the effect of the test substances on feces production. During the 10-day period, the body weights of the rats were weighed each day and recorded. The rat's feces was also studied three times in the manner described above during the 10-day period for any unusual observations. During the 10-day period, any rat that appeared dying was euthanized, dissected, and examined for any illness or injury. Any complications or illness were analyzed by H&E stains to determine the cause of death and to allow for dosage reconsiderations for future experiments. Summarized in Table 4 below are the effects of the compounds, mixtures, or extracts on the rat body weights.

[2] = test system: healthy male S.D. rats; experiment: Feces production in rats over the 10-day period (Example 3); assay type: in vivo, rat; settings: for increase of the feces amount (wet weight): vs control of the same group; for Pellet count / Water content / Wet Weight: Sennosides 3.35 mg/kg; for increase of the feces amount (wet weight), average: average of Days 1, 5 and 10
Protocol: During this period, the body weights of the rats were weighed each day and recorded. Feces of each rat were studied three times during the period for any unusual observations. Specifically, the amounts of feces were weighed on Days 11, 15, 18, and 21. During observation, each rat was placed in a metabolic cage. Feces were collected every twenty-four hours. The number of collected feces pellets was counted, and the pellets' shapes and colors were evaluated. After weighing the moist feces, they were dried in an oven at 100° C. for twenty-four hours. The water content from the feces was calculated according to the following formula: Water content percentage=[(wet weight−dry weight)/wet weight]×100%. (I) The results are summarized in Table 2 below: The aforementioned STD05 and compounds were studied for the laxative activity. Healthy male S.D. rats (BioLASCO Taiwan Co. Ltd.) were divided into three groups (i.e., Groups 1-3) in this study. In Group I, 6 rats, as negative control, were given no treatment; 6 rats, as positive control, were given 3.35 mg/kg/day Sennosides (Through®, Chung Mei Pharmaceutical Co., Ltd; Active ingredient: Sennosides 20 mg, as sennoside A+B 12 mg, Lot. 012F 006); 6 rats were treated STD05 (8 mg/kg/day); 6 rats were treated with an extract fraction containing aloe-emodin, rhein, and emodin (“ARE”, 8 mg/kg/day); 6 rats were treated with Aloe-emodin (4 mg/kg/day); and 6 rats were treated with Rhein (4 mg/kg/day). In Group II, 6 rats, as negative control, were given no treatment; 6 rats, as positive control, were given 3.35 mg/kg/day Sennosides; 6 rats were treated STD05 (24 mg/kg/day); 6 rats were treated with an extract fraction containing ARE (24 mg/kg/day); 6 rats were treated with Chrysophanol (4 mg/kg/day); and 6 rats were treated with Emodin (4 mg/kg/day). In Group III, 6 rats, as negative control, were given no treatment; 6 rats were treated with Physcoin (4 mg/kg/day); and 6 rats were treated with a mixture of chrysophanol and physcion (8 mg/kg/day, “CP”). The experiments were carried out under controlled temperature, humidity, and lighting. Each rat was fed standard rat food and water ad libitum in housing that provided a 12-hour light/dark cycle. For statistical comparison, all of the rats were divided into six sets according to the body weights. The first part of the experiment studied the effect of the test substances on feces production. During the 10-day period, the body weights of the rats were weighed each day and recorded. The rat's feces was also studied three times in the manner described above during the 10-day period for any unusual observations. During the 10-day period, any rat that appeared dying was euthanized, dissected, and examined for any illness or injury. Any complications or illness were analyzed by H&E stains to determine the cause of death and to allow for dosage reconsiderations for future experiments. Summarized in Table 4 below are the effects of the compounds, mixtures, or extracts on the rat body weights. During the period, feces produced by the rats were studied days 1, 5, and 10 in the same manner described above. […] In the 10-day period, the rats administered with STD05 produced more feces (wet weight) that the rats in the control group by about 32%. In addition, the pellet counts for the rats administered with STD05 were greater than those for the control rats by about 20%. Furthermore, STD05 increased the water content in feces by about 18%. The same experiments were conducted on rats administered with physcion, aloe-emodin, chrysophanol, rhein, emodin, CP, and ARE.

[3] = Group I, STD05 8 mg/kg, ARE 8 mg/kg, Aloe-emodin 4 mg/kg, Rhein 4 mg/kg
[4] = Group I, Day 1, STD05 8 mg/kg, ARE 8 mg/kg, Aloe-emodin 4 mg/kg, Rhein 4 mg/kg
[5] = Group I, Day 5, STD05 8 mg/kg, ARE 8 mg/kg, Aloe-emodin 4 mg/kg, Rhein 4 mg/kg
[6] = Group I, Day 10, STD05 8 mg/kg, ARE 8 mg/kg, Aloe-emodin 4 mg/kg, Rhein 4 mg/kg
[7] = Group II, STD05 24 mg/kg, ARE 24 mg/kg, Chrysophanol 4 mg/kg, Emodin 4 mg/kg
[8] = Group II, Day 1, STD05 24 mg/kg, ARE 24 mg/kg, Chrysophanol 4 mg/kg, Emodin 4 mg/kg
[9] = Group II, Day 5, STD05 24 mg/kg, ARE 24 mg/kg, Chrysophanol 4 mg/kg, Emodin 4 mg/kg
[10] = Group II, Day 10, STD05 24 mg/kg, ARE 24 mg/kg, Chrysophanol 4 mg/kg, Emodin 4 mg/kg

SMILES	Body weight Difference, Mean [1, 3] [g]	Body weight End Day 10, Mean [1, 3] [g]	Body weight Difference [1, 3]	Body weight End Day 10 [1, 3]	increase of the feces amount (wet weight) ([2]; Day 1) [%]	increase of the feces amount (wet weight) ([2]; Day 5) [%]	increase of the feces amount (wet weight) ([2]; Day 10) [%]	Pellet count [2, 4]	Water content [2, 4] [%]	Wet Weight [2, 4] [g]	Pellet count [2, 5]	Water content [2, 5] [%]	Wet Weight [2, 5] [g]	Pellet count [2, 6]	Water content [2, 6] [%]	Wet Weight [2, 6] [g]	increase of the feces amount (wet weight), average [2] [%]	other results
O=C(O)c1cc(O)c2c(c1)C(=O)c1cccc(O)c1C2=O [Rhein]	51	331	55 (4×) and 50 and 35	330 (2×) and 340 (2×) and 310 and 335	31	−9	−1	102	42.58	17.57	89	44.55	16.88	119	46.53	23.52	7	–
O=C1c2cccc(O)c2C(=O)c2c(O)cc(CO)cc21 [Aloe-emodin]	58	330	45 and 50 (2×) and 40 (2×) and 55	315 (2×) and 335 and 345 (2×) and 325	27	9	20	98	42.48	17.00	104	41.98	20.21	125	50.48	28.86	19	–
Cc1cc(O)c2c(c1)C(=O)c1cc(O)cc(O)c1C2=O [Emodin]	–	–	–	–	−30	12	4	–	–	–	–	–	–	–	–	–	−5	Body weight Difference, Mean [1, 7]: 32 g; Body weight End Day 10, Mean [1, 7]: 379 g; Body weight Difference [1, 7]: 30 and 35 (3×) and 45 and 10; Body weight End Day 10 ([1]; Group II, STD05 24 mg/kg, ARE 24 mg/kg, Chrysophanol 4 mg/kg, Emodin 4 mg/kg, in g (unit assumed)): 370 and 380 and 405 and 340 and 385 and 395; Pellet count [2, 8]: 90; Water content [2, 8]: 42.38%; Wet Weight [2, 8]: 16.86 g; Pellet count [2, 9]: 112; Water content [2, 9]: 51.00%; Wet Weight [2, 9]: 25.51 g; Pellet count [2, 10]: 106; Water content [2, 10]: 53.64%; Wet Weight [2, 10]: 26.21 g

— patent US8466202B2, “Anthracenedione compounds” (Sunten Phytotech Co., Ltd., priority 2006, dated 2013)
